≈ marks a conversion by molar mass, not a printed value.
System: Mycobacterium tuberculosis variant bovis
Assay: Antituberculosis activity against Mycobacterium bovis ATCC 25523
Type: functional

For `COc1ccnc(NC(=O)NS(=O)(=O)c2cc(NC(=O)CCl)ccc2Cl)n1`, the MIC was 10 µg/mL (≈ 23 µM).
`Cc1ccnc(NC(=O)NS(=O)(=O)c2cc(NC(=O)CCl)ccc2Cl)n1` showed an MIC of 10 µg/mL (≈ 23.9 µM).

— ChEMBL document CHEMBL1949543, “Synthesis and evaluation of novel monosubstituted sulfonylurea derivatives as antituberculosis agents” (Eur J Med Chem, 2012)
